Laboratory results from patent US6737383B1, “Herbicidal oxadiazolidines” (priority 1999, dated 2004).

Assays:
sandbur = test: Test D sandbur; type: in vivo, Cenchrus echinatus; settings: Preemergence, 0 to 100 scale
How it was run: (§1)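 Greenhouse pots, sandy loam, single species per pot. Preemergence tests: soil-surface application ≤1 day after planting. Compound formulated in non-phytotoxic solvent with surfactant. Visual rating 14–21 DAT, scale 0–100.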

tall mallow = test: Test D tall mallow; type: in vivo, Malva sylvestris; settings: Preemergence, 0 to 100 scale
How it was run: as §1

itchgrass = test: Test D itchgrass; type: in vivo, Rottboellia exaltata; settings: Preemergence, 0 to 100 scale
How it was run: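 Scoring used a 0–100 visual injury scale, with 0 meaning no effect and 100 complete control, assessed 14–21 days after application alongside untreated pots. Preemergence treatments went onto sandy loam surfaces of separately potted seeds within a day of sowing.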

large crabgrass = test: Test D large crabgrass; type: in vivo, Digitaria sanguinalis; settings: Preemergence, 0 to 100 scale
How it was run: as §1

Green foxtail = test: Test D green foxtail; type: in vivo; settings: Preemergence, 0 to 100 scale
How it was run: as §1

Spanishneedles = test: Test D Spanishneedles; type: in vivo, Bidens bipinnata; settings: Preemergence, 0 to 100 scale
How it was run: as §1

bermuda-grass = test: Test D bermudagrass; type: in vivo, Cynodon dactylon; settings: Preemergence, 0 to 100 scale
How it was run: as §1

dallisgrass = test: Test D dallisgrass; type: in vivo, Paspalum dilatatum; settings: Preemergence, 0 to 100 scale
How it was run: as §1

common pursiane = test: Test D common purslane; type: in vivo, Portulaca oleracea; settings: Preemergence, 0 to 100 scale
How it was run: as §1

guineagrass = test: Test D guineagrass; type: in vivo, Panicum maximum; settings: Preemergence, 0 to 100 scale
How it was run: as §1

purple nutsedge = test: Test D purple nutsedge; type: in vivo, Cyperus rotundus; settings: Preemergence, 0 to 100 scale
How it was run: as §1

surinam grass = test: Test D surinam grass; type: in vivo, Brachiaria decumbens; settings: Preemergence, 0 to 100 scale
How it was run: as §1

pitted morningglory = test: Test D pitted morningglory; type: in vivo, Ipomoea lacunosa; settings: Preemergence, 0 to 100 scale
How it was run: as §1

common ragweed = test: Test D common ragweed; type: in vivo, Ambrosia elatior; settings: Preemergence, 0 to 100 scale
How it was run: as §1

chickweed = test: Test E chickweed; type: in vivo, Stellaria media; settings: Preemergence
Johnson grass = test: Test D Johnson grass; type: in vivo, Sorghum halepense; settings: Preemergence, 0 to 100 scale
How it was run: as §1

barnyardgrass = test: Test A barnyardgrass; type: in vivo, Echinochloa crus-galli; settings: 0 to 10 scale where 0 is no effect and 10 is complete control
How it was run: (§2)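 Visual injury score, 0 (no effect) to 10 (complete control), vs untreated controls at ~11 d in greenhouse. Pre: soil drench on sandy loam. Post: spray to runoff, 1–2 leaf stage.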

velvetleaf = test: Test A velvetleaf; type: in vivo, Abutilon theophrasti; settings: 0 to 10 scale where 0 is no effect and 10 is complete control
How it was run: as §2

morningglory = test: Test A morningglory; type: in vivo, Ipomoea spp.; settings: 0 to 10 scale where 0 is no effect and 10 is complete control
How it was run: as §2

[1] = Rate 16 g/ha, 0 no injury, 100 complete control
[2] = Rate 32 g/ha, 0 no injury, 100 complete control
[3] = Rate 64 g/ha, 0 no injury, 100 complete control
[4] = Rate 125 g/ha, 0 no injury, 100 complete control

C=CCn1c(=O)on(C(=O)N(c2ccc(Cl)cc2)C(C)C)c1=O [Compound 105]
Plant response rating, Sandbur (sandbur; [1]): 0 | Plant response rating, Sandbur (sandbur; [2]): 0 | Sandbur plant response rating (sandbur; [3]): 0 | Sandbur plant response rating (sandbur; [4]): 0 | Plant response rating, Sandbur (sandbur; Rate 250 g/ha): 98 | Plant response rating, Sandbur (sandbur; Rate 500 g/ha): 100 | Plant response rating, Tall Mallow (tall mallow; [1]): 0 | Plant response rating, Tall Mallow (tall mallow; [2]): 0 | Tall Mallow plant response rating (tall mallow; [3]): 0 | Plant response rating, Tall Mallow (tall mallow; [4]): 40 | Tall Mallow plant response rating (tall mallow; [4]): 45 | Plant response rating, Tall Mallow (tall mallow; Rate 250 g/ha): 75 | Plant response rating, Tall Mallow (tall mallow; Rate 500 g/ha): 75 | Plant response rating, Itchgrass (itchgrass; [1]): 0 | Plant response rating, Itchgrass (itchgrass; [2]): 0 | Plant response rating, Itchgrass (itchgrass; [3]): 20 | Plant response rating, Itchgrass (itchgrass; [4]): 20 | Plant response rating, Itchgrass (itchgrass; Rate 250 g/ha): 85 | Plant response rating, Itchgrass (itchgrass; Rate 500 g/ha): 85 | Plant response rating Large crabgrass (large crabgrass; [1]): 40 | Plant response rating Large crabgrass (large crabgrass; [2]): 98 | Plant response rating Large crabgrass (large crabgrass; [3]): 100 | Plant response rating Large crabgrass (large crabgrass; [4]): 100 | Plant response rating Large crabgrass (large crabgrass; Rate 250 g/ha): 100 | Plant response rating Large crabgrass (large crabgrass; Rate 500 g/ha): 100 | Plant response rating, Green foxtail (Green foxtail; Rate 250 g/ha): 100 | Plant response rating, Green foxtail (Green foxtail; Rate 500 g/ha): 100 | Plant response rating, Spanishneedles (Spanishneedles; [1]): 0 | Plant response rating, Spanishneedles (Spanishneedles; [2]): 0 | Spanishneedles plant response rating (Spanishneedles; [3]): 0 | Spanishneedles plant response rating (Spanishneedles; [4]): 0 | Plant response rating, Spanishneedles (Spanishneedles; Rate 500 g/ha): 0 | Plant response rating, Bermudagrass (bermuda-grass; [1]): 85 | Plant response rating, Bermudagrass (bermuda-grass; [2]): 98 | Plant response rating, Bermudagrass (bermuda-grass; [3]): 98 | Plant response rating, Bermudagrass (bermuda-grass; [4]): 100 | Plant response rating, Bermudagrass (bermuda-grass; Rate 250 g/ha): 100 | Plant response rating, Bermudagrass (bermuda-grass; Rate 500 g/ha): 100 | Plant response rating, Dallisgrass (dallisgrass; [1]): 60 | Plant response rating, Dallisgrass (dallisgrass; [2]): 98 | Plant response rating, Dallisgrass (dallisgrass; [3]): 98 | Plant response rating, Dallisgrass (dallisgrass; [4]): 100 | Plant response rating, Dallisgrass (dallisgrass; Rate 250 g/ha): 100 | Plant response rating, Dallisgrass (dallisgrass; Rate 500 g/ha): 100 | Plant response rating, C. purslane (common pursiane; [1]): 0 | Plant response rating, C. purslane (common pursiane; [2]): 0 | Plant response rating, C. purslane (common pursiane; [3]): 0 | Plant response rating, C. purslane (common pursiane; [4]): 0 | Plant response rating, C. purslane (common pursiane; Rate 250 g/ha): 0 | Plant response rating, C. purslane (common pursiane; Rate 500 g/ha): 0 | Plant response rating, Guineagrass (guineagrass; [1]): 40 | Plant response rating, Guineagrass (guineagrass; [2]): 85 | Plant response rating, Guineagrass (guineagrass; [3]): 98 | Plant response rating, Guineagrass (guineagrass; [4]): 98 | Plant response rating, Guineagrass (guineagrass; Rate 250 g/ha): 100 | Plant response rating, Guineagrass (guineagrass; Rate 500 g/ha): 100 | Plant response rating, Purple nutsedge (purple nutsedge; [1]): 0 | Plant response rating, Purple nutsedge (purple nutsedge; [2]): 0 | Purple nutsedge plant response rating (purple nutsedge; [3]): 0 | Purple nutsedge plant response rating (purple nutsedge; [4]): 0 | Plant response rating, Purple nutsedge (purple nutsedge; Rate 250 g/ha): 0 | Plant response rating, Purple nutsedge (purple nutsedge; Rate 500 g/ha): 75 | Plant response rating, Surinam grass (surinam grass; [1]): 0 | Plant response rating, Surinam grass (surinam grass; [2]): 0 | Surinam grass plant response rating (surinam grass; [3]): 0 | Surinam grass plant response rating (surinam grass; [4]): 40 | Plant response rating, Surinam grass (surinam grass; Rate 250 g/ha): 98 | Plant response rating, Surinam grass (surinam grass; Rate 500 g/ha): 100 | Plant response rating, P. morninglory (pitted morningglory; [1]): 0 | Plant response rating, P. morninglory (pitted morningglory; [2]): 0 | Plant response rating, P. morninglory (pitted morningglory; [3]): 0 | Plant response rating, P. morninglory (pitted morningglory; [4]): 0 | Plant response rating, P. morninglory (pitted morningglory; Rate 250 g/ha): 0 | Plant response rating, P. morninglory (pitted morningglory; Rate 500 g/ha): 0 | Plant response rating, C. ragweed (common ragweed; [1]): 0 | Plant response rating, C. ragweed (common ragweed; [2]): 0 | Plant response rating, C. ragweed (common ragweed; [3]): 0 | Plant response rating, C. ragweed (common ragweed; [4]): 0 | Plant response rating, C. ragweed (common ragweed; Rate 250 g/ha): 0 | Plant response rating, C. ragweed (common ragweed; Rate 500 g/ha): 0 | Plant response rating, Chickweed (chickweed; Rate 250 g/ha, 0 to 100 scale): 85 | Plant response rating Johnsongrass (Johnson grass; [1]): 0 | Plant response rating Johnsongrass (Johnson grass; [2]): 0 | Plant response rating Johnsongrass (Johnson grass; [3]): 0 | Plant response rating Johnsongrass (Johnson grass; [4]): 20 | Plant response rating Johnsongrass (Johnson grass; Rate 250 g/ha): 75 | Plant response rating Johnsongrass (Johnson grass; Rate 500 g/ha): 90

CC(C)N(C(=O)n1oc(=O)n(C(C)C)c1=O)c1ccc(Cl)cc1 [Compound 114]
Sandbur plant response rating (sandbur; [4]): 85 | Tall Mallow plant response rating (tall mallow; [4]): 10 | Plant response rating, Itchgrass (itchgrass; [4]): 20 | Plant response rating Large crabgrass (large crabgrass; [4]): 100 | Spanishneedles plant response rating (Spanishneedles; [4]): 0 | Plant response rating, Bermudagrass (bermuda-grass; [4]): 100 | Plant response rating, Dallisgrass (dallisgrass; [4]): 100 | Plant response rating, C. purslane (common pursiane; [4]): 0 | Plant response rating, Guineagrass (guineagrass; [4]): 100 | Purple nutsedge plant response rating (purple nutsedge; [4]): 20 | Surinam grass plant response rating (surinam grass; [4]): 75 | Plant response rating, Barnyardgrass (barnyardgrass; Postemergence, Rate 1000 g/ha): 8 | Plant response rating, Barnyardgrass (barnyardgrass; Pre-emergence, Rate 2000 g/ha): 10 | Plant response rating, P. morninglory (pitted morningglory; [4]): 0 | Plant response rating, C. ragweed (common ragweed; [4]): 0 | Plant response rating, Velvetleaf (velvetleaf; Postemergence, Rate 1000 g/ha): 5 | Plant response rating, Velvetleaf (velvetleaf; Pre-emergence, Rate 2000 g/ha): 6 | Plant response rating, Morningglory (morningglory; Postemergence, Rate 1000 g/ha): 10 | Plant response rating, Morningglory (morningglory; Pre-emergence, Rate 2000 g/ha): 6 | Plant response rating, Chickweed (chickweed; Rate 125 g/ha, 0 to 100 scale (0 no effect, 100 complete control)): 15 | Plant response rating, Chickweed (chickweed; Rate 250 g/ha, 0 to 100 scale): 50 | Plant response rating, Chickweed (chickweed; Rate 500 g/ha, 0 to 100 scale where 0 is no effect and 100 is complete control): 100 | Plant response rating Johnsongrass (Johnson grass; [4]): 0
